Reference: patent US9694061B2, “Fully human antibodies to high molecular weight-melanoma associated antigen and uses thereof” (University of Pittsburgh—Of the Commonwealth System of …, priority 2008, dated 2017)

Assays:
scFv C21 [1] = assay: ELISA of synthetic peptides immobilized on plate with scFv C21; assay type: binding, human; conditions: peptide immobilized by 0.25% glutaraldehyde PBS
Experimental: FIG. 7. Reactivity in ELISA of scFv C21 with synthetic peptides derived from those isolated by panning the phage display peptide library X15 with scFv C21. Ninety-six well plates were coated for 2 h at 37° C. with synthetic peptides P1C21 ( ? ), P2C21 (125 μM) ( ? ), and P3C21 (125 μM) ( ? ), in 0.25% glutaradehyde-PBS. Following blocking with PBS-1% BSA, wells were incubated for 2 h at room temperature with 50 μl of PP scFv C21 at and 50 μl of biotinylated mAb 9E10 (2.5 μg/ml 1% BSA-PBS). Binding of scFv antibody to ? peptides was detected by addition of SA-HRP. Results are expressed as absorbance at […]. […]
The ELISA to test the reactivity of soluble scFv antibodies with synthetic peptides and melanoma cells and of mouse immune sera with melanoma cells and with peptides was performed as described (Desai et al., Cancer Res 58:2417-2425, 1998; Desai et al., J Immunol 165:3275-3283, 2000; Matsui et al., J Immunol 139:2088-2095, 1987). Results are expressed as absorbance of optical density (O.D.) at 450 nm. The competition assay to map the antigenic determinant recognized by scFv C21 was performed by mixing biotinylated scFv C21 (0.25 μg/well) with two-fold dilutions of mouse mAb or scFv PP or by mixing biotinylated mAb (at an optimal amount giving absorbance, measured at 450 nm of 1.0) with two fold dilutions of scFv PP. […]

scFv C21 [2] = assay: Inhibition by synthetic peptides of scFv C21 binding to Colo38 cells; design: species or system human; conditions: for Inhibition of the binding of scFv C21 to HMW-MAA+ melanoma cells Colo38: soluble peptide, FIG. 8
Experimental: FIG. 8. Inhibition of the reactivity of scFv C21 with HMW-MAA^+ cells Colo38 by synthetic peptides P1C21 and P3C21 and by modified peptide P3C21. Varying concentrations of synthetic peptides P1C21 (-●-), P3C21(-▴-), P3A5 (-⋄-), P3V7 ( ? ) and P3S10 ( ? ) were incubated for 2 h at 4° C. with 50 μl of PP scFv (1:1600 dilution in 1% BSA-PBS) and 50 μl of biotinylated mAb 9E10 (2.5 μg/ml 1% BSA-PBS). The mixture was then transferred to wells containing cells Colo38. Binding of scFvC21 was detected using SA-HRP (top panel). Results are expressed as % inhibition. The unrelated peptide MART-1 (-∇-) and the scFv #28 (bottom panel) which recognizes an unrelated HMW-MAA determinant were used as specificity controls.
The ELISA to test the reactivity of soluble scFv antibodies with synthetic peptides and melanoma cells and of mouse immune sera with melanoma cells and with peptides was performed as described (Desai et al., Cancer Res 58:2417-2425, 1998; Desai et al., J Immunol 165:3275-3283, 2000; Matsui et al., J Immunol 139:2088-2095, 1987). Results are expressed as absorbance of optical density (O.D.) at 450 nm. The competition assay to map the antigenic determinant recognized by scFv C21 was performed by mixing biotinylated scFv C21 (0.25 μg/well) with two-fold dilutions of mouse mAb or scFv PP or by mixing biotinylated mAb (at an optimal amount giving absorbance, measured at 450 nm of 1.0) with two fold dilutions of scFv PP. […] Binding of biotinylated scFv antibodies and biotinylated mAb to target cells was measured by sequential incubation with SA-HRP and substrate as described (Noronha et al., J Immunol 161:2968-2976, 1998). The results are expressed as percent inhibition by mAb, scFv or peptide (competitor or inhibitor) of scFv or mAb binding to HMW-MAA^+ cells. The percent inhibition was calculated using the formula: % inhibition=((OD450 in the absence of inhibitor−OD450 in the presence of inhibitor)/OD450 in the absence of inhibitor)×100.

HMW-MAA^+ cells Colo38 = assay: Delayed-type hypersensitivity (DTH) reaction in immunized mice; assay type: in vivo, BALB/c mice; conditions: mice immunized six times, cells injected day 132
Experimental: FIG. 12. DTH reaction to HMW-MAA^+ melanoma cells Colo38 in BALB/c mice immunized with peptide P1C21. Irradiated (20K rads) HMW-MAA^+ cells Colo38 (5×10^5 cells/mouse) ( ? ) and HMW-MAA^− LG2 cells (5×10^5 cells/mouse) (□) were injected on day 132 into the right and left hind footpad, respectively, of BALB/c mice, which had been immunized six times with peptide P1C21 on days 0, 21, 42, 63, 84 and 105. Amount of swelling induced by the injected cells was measured and calculated by subtracting the thickness of the footpad measured at time 0 h from that measured 24 h after the injection of cells. Mice immunized with control peptide MB1194-208 using the same schedule were injected at the same time point with either Colo38 or LG2 cells, and used as controls. *p<0.05.
Mice which had been immunized six times with peptide P1C21 or control peptide were injected on day 132 s.c. into the right and left hind footpads with irradiated HMW-MAA^+ cells Colo38 (5×10^5 cells/injection/) and HMW-MAA^− cells LG2 (5×10^5 cells/injection/), respectively. The thickness of each footpad was measured and calculated at the indicated times as previously described (Luo et al., J Immunol 174:7104-7110, 2005, herein incorporated by reference).

[3] = system: HMW-MAA^+ melanoma cells Colo38; assay: Immunization of BALB/c mice with peptide-KLH conjugate, HMW-MAA-specific antibodies in sera; assay type: in vivo; conditions: control peptide immunization
Experimental: FIG. 9. Development of antibodies with selective reactivity with HMW-MAA^+ cells Colo38 in BALB/c mice immunized with peptide P1C21 and boosted with Colo 38 cells. Mice were immunized with KLH-conjugated peptide P1C21 ( ? ) (50 μg/injection) on day 0, 21, 42, 63, 84 and 105, and with HMW-MAA^+ Colo38 melanoma cells (5×10^5 cells/injection) on day 132. Sera were harvested one week before the first immunization, and one week after each immunization. Two-fold dilutions of sera (100 μl/well) were incubated with HMW-MAA^+ Colo38 melanoma cells (1×10^5/well). Following an additional incubation with HRP-conjugated goat anti-mouse IgG antibodies, the reaction was developed using TMB substrate. O.D. was measured at 450 nm. Results are expressed as the mean±SD of the highest dilution of sera giving 50% of the maximal binding to HMW-MAA^+ cells. Sera from mice immunized with peptide MB1194-208 were used as controls. *p<0.05.
FIG. 10. Flow cytometry analysis of HMW-MAA^+ M14#5/HMW-MAA melanoma cells stained with antibodies elicited by peptide P1C21 and HMW-MAA^+ cells Colo38 in BALB/c mice. […] Cells were then analyzed with a FACScan™ flow cytometry. Results are expressed as fluorescence intensity (empty histogram). […]
FIG. 11. […] Antigens were eluted from the immunoadsorbent, and analyzed by SDS-PAGE in an 8% polyacrylamide gel. […]

scFv C21 [4] = assay: Kinetic binding studies by surface plasmon resonance (BIACORE 3000); design: species or system human; conditions: scFv C21 immobilized, 25° C., peptide 1 to 32 μM, 1:1 Langmurian model
Experimental: Binding experiments were performed with the surface plasmon resonance based biosensor instrument BIACORE™ 3000 (Biacore AB, Uppsala, Sweden), at 25° C. Immobilization of scFv C21 in the sensor surface was performed following the standard amine coupling procedure according to the manufacturer's instructions. Briefly, 35 μl of a solution containing 0.2 M N-ethyl-N′-(dimethylaminopropyl) carbodiimide (EDC) and 0.05M N-hydroxysuccinimide (NHS), were injected at a flow rate of 5 μl/min to activate carboxyl groups on the sensor chip surface. scFv C21 ([…] of 10 mM NaOAc buffer, pH 5.0) was flowed over the chip surface at a flow rate of 20 μl/min until the desired bound protein level was reached. Unreacted scFv C21 was washed out and unreacted activated groups were blocked by the injection of 35 μl of 1 M ethanolamine at 5 μl/min. The final immobilization response of scFv C21 was 3,000 RU. A reference surface was generated simultaneously under the same conditions but without scFv C21 injection and used as a blank to correct for instrument and buffer artifacts. Peptides were injected at variable concentrations at different flow rates from 20-100 μl/min. Peptides binding to scFv C21 immobilized on the chip was monitored in real time.
To exclude that binding constants obtained from SPR were not affected by either rebinding of the analyte or mass transport effects, studies were repeated at different flow rates (20-100 μl/min). Kinetic constants obtained at both flow rates remained unchanged.
To evaluate binding, peptides P1C21 and P3C21 were injected at concentrations ranging from 1 to 32 μM. The resulting sensograms were used for estimation of the kinetic constants (kon and koff) by global fitting to the 1:1 Langmurian interaction model. The binding constant (Kd) was calculated for each peptide as a koff/kon ratio.

## EARNWHDFPIHPRTL (listed as Homo sapiens) [P2C21]
scFv C21 [1]
  Reactivity of immobilized synthetic peptide with scFv C21 in ELISA: reacted specifically with scFv C21
scFv C21 [2]
  Inhibition of the binding of scFv C21 to HMW-MAA+ melanoma cells Colo38: did not inhibit the binding of scFv C21

## MB1194-208: irrelevant peptide derived from the sequence of the proteasome subunit MB1, used as control (AYGVMDRGYSYDLEV)
HMW-MAA^+ cells Colo38
  DTH response: swelling of footpad injected with Colo38 cells versus LG2 cells: no swelling of the footpad was observed
[3]
  Reactivity of immune sera with Colo38 cells: displayed no reactivity with Colo38 cells

## RPYRYDPLGDLKSRH [P3C21]
scFv C21 [1]
  Reactivity of immobilized synthetic peptide with scFv C21 in ELISA: did not
scFv C21 [4]
  Koff: 0.0655 s⁻¹
  Kon: 2170 M⁻¹ s⁻¹
scFv C21 [2]
  Inhibition of the binding of scFv C21 to HMW-MAA+ melanoma cells Colo38: inhibited the binding of scFv C21 to HMW-MAA^+ cells in a dose dependent fashion

## RPYRYDPLGSLKSRH [P3S10]
scFv C21 [4]
  Koff: 0.00307 s⁻¹
  Kon: 917 M⁻¹ s⁻¹
scFv C21 [2]; compared with P3C21
  Effect of Asp to Ser replacement at position 10 on ability of P3C21 to inhibit reactivity of scFv C21 with Colo38 cells: only a slight effect
